# Test results reported in patent US4910225A, “Locally administrable therapeutic composition for inflammatory disease” (Senju Pharmaceutical Co., Ltd., priority 1988, dated 1990).
# Legend:
# [1] = system: experimental ophthalmitis induced by bovine serum albumin in white rabbits (ophthalmitis I); assay: Ophthalmitis I: protein, white blood cell count and prostaglandins in anterior chamber aqueous humor; format: in vivo; conditions: for Prostaglandin in anterior chamber aqueous humor: less than the assay limit; for Protein in anterior chamber aqueous humor / White Blood Cell count in anterior chamber aqueous humor: mean ± SE
# Description: (§1) Seventeen male white rabbits weighing about 2 kg were used. They were fed with 80 g of Labo RG-RO (Nippon Agricultural Co., Ltd.) daily and had free access to tap water.
# (§2) After 28 days when ophthalmitis I had nearly recovered, 2.5% BSA solution was administered in a dose of 25 mg/ml/kg into the auricular vein to cause ophthalmitis (ophthalmitis II). The severity of ophthalmitis was rated according to the rating scale^(1) of Yamauchi et al., based on the Draize method in which an increased weight given to the internal segment of the eye. Observation was made with a frequency of once in one or two days during the peak period of inflammation and once in three or four days before and after the peak period for ophthalmitis I and 3, 6, 12 and 24 hours after intravenous injection of BSA for ophthalmitis II.
# (§3) Gross observation was made on the day after injection of BSA into the vitreous body and with the animals arranged in the decreasing order of severity of ocular inflammation, grouping was carried out in such a manner that the intensity distribution would be uniform over the groups. Thus, a physiological saline group of 7 animals, a 0.1% Compound [I] instillation group of 4 animals and a 0.5% Compound [I] instillation group of 5 animals were provided. After this grouping procedure, the test drugs and saline were respectively instilled into both eyes of the rabbits, 50 μl per dose, 4 times a day. For induction of ophthalmitis II, each drug was instilled into both eyes, 50 μl per dose, immediately after injection of BSA into the auricular vein and at 1-hour intervals thereafter, for a total of 14 times.
# [2] = system: atropine-resistant miosis; assay: Atropine-resistant miosis after paracentesis; format: in vivo, albino rabbits; conditions: for Miosis: 10 min after paracentesis
# Description: (§4) The solutions of the following formulas were used.
# (§5) Totally 28 male albino rabbits (4 rabbits×7 groups) with a body weight of about 2 kg werr used. They had been confirmed, before the experiment, to have mydriatic response to 1% atropine for at least 4 hours.
# (§6) 50 μl each of 1% atropine solution was instilled into both eyes of the animals one hour before the 1st paracenthesis, in which approx. 0.2 ml/eye of aqueous humor (primary aqueous humor) was collected. Topical application of 50 μl each of the test drug solutions was conducted 30 min before the paracenthesis. Pupil diameter of each eye was measured with a slide caliper immediately before and 10 min after the paracenthesis. The 2nd paracenthesis was conducted 90 min after the 1st one, in which approx. 0.2 ml/eye of aqueous humor (secondary aqueous humor) was collected.
# [3] = Stability with polyvinyl pyrrolidone and sodium sulfite (Experimental Example 6); format: physicochemical; conditions: solution in which polyvinyl pyrrolidone and sodium sulfite coexist
# [4] = system: experimental ophthalmitis induced by bovine serum albumin in white rabbits (ophthalmitis II); assay: Ophthalmitis II: protein, white blood cell count and prostaglandins in anterior chamber aqueous humor; format: in vivo; conditions: for Prostaglandin in anterior chamber aqueous humor: less than the assay limit; for White Blood Cell count in anterior chamber aqueous humor: mean ± SE
# Description: as §1, §2, §3
# [5] = system: experimental ophthalmitis induced by bovine serum albumin in white rabbits (ophthalmitis II); assay: Anti-inflammatory effect in ophthalmitis II (intravenous bovine serum albumin relapse), gross severity scores; format: in vivo; conditions: for Anterior chamber opacity, degree of inhibition relative to physiological saline group / Balbar conjunctival injection, degree of inhibition relative to physiological saline group / Corneal opacity, degree of inhibition relative to physiological saline group / Discharge, degree of inhibition relative to physiological saline group / External + Internal Grand Total Score, degree of inhibition relative to physiological saline group / External Segment Total Score, degree of inhibition relative to physiological saline group / Internal Segment Total Score, degree of inhibition relative to physiological saline group / Iridic injection, degree of inhibition relative to physiological saline group / Morphological change of iris, degree of inhibition relative to physiological saline group / Palpebral conjunctival edema, degree of inhibition relative to physiological saline group / Palpebral conjunctival injection, degree of inhibition relative to physiological saline group: ophthalmitis II; for Anterior chamber opacity score (Internal Segment) / Balbar conjunctival injection score (External Segment) / Corneal opacity score (External Segment) / Discharge score (External Segment) / External + Internal Grand Total Score / External Segment Total Score / Internal Segment Total Score / Iridic injection score (Internal Segment) / Morphological change of iris score (Internal Segment) / Palpebral conjunctival edema score (External Segment) / Palpebral conjunctival injection score (External Segment): ophthalmitis II, 3, 6, 12 and 24 hours after intravenous BSA, mean ± SE
# Description: as §1, §2
# ^(1) Hideyasu Yamauchi, Makoto Ingu, Tadashi Iso and Kozo Uda: Anti-inflammatory effect of fluorometholone ophthalmic solution in experimental uveitis in rabbits, Folia Ophthalmologica Japonica, 24: 969-79 (1973).
# as §3
# [6] = system: protein increase after paracentesis; assay: Protein increase in aqueous humor after paracentesis; format: in vivo, albino rabbits
# Description: as §4, §5, §6
# [7] = pH and osmolarity of ophthalmic solutions; format: physicochemical
smiles,measurement,setting,value
"Nc1c(CC(=O)[O-])cccc1C(=O)c1ccc(Br)cc1.O.[Na+] [Compound [I], Sodium 3-(4-bromobenzoyl)-2-aminophenylacetate monohydrate]",Inhibition of prostaglandins in the aqueous humor,[1]; 0.1% and 0.5%,substantially complete inhibition of prostaglandins in the aqueous humor
same,Prostaglandin in anterior chamber aqueous humor,[1]; 0.1%,< 0.4 ng/mL
same,Protein in anterior chamber aqueous humor,[1]; 0.1%,48.7 ± 3.8 mg/Mml
same,White Blood Cell count in anterior chamber aqueous humor,[1]; 0.1%,5593 ± 3436 Cells/mm^3
same,Prostaglandin in anterior chamber aqueous humor,[1]; 0.5%,< 0.4 ng/mL
same,Protein in anterior chamber aqueous humor,[1]; 0.5%,28.4 ± 1.6 mg/Mml
same,White Blood Cell count in anterior chamber aqueous humor,[1]; 0.5%,1980 ± 654 Cells/mm^3
same,Inhibitory activity on miosis after paracentesis,"[2]; Compound [I] 0.0001-0.1%, indomethacin as high as 0.5%",dose-related inhibitory activity on miosis after paracentesis
same,Inhibition (miosis),[2]; content 0.0001%,9.2 ± 8.33%
same,Miosis,[2]; content 0.0001%,21.5 ± 1.97%
same,Inhibition (miosis),[2]; content 0.001%,19.7 ± 6.08%
same,Miosis,[2]; content 0.001%,19.0 ± 1.44%
same,Inhibition (miosis),[2]; content 0.01%,35.2 ± 6.75%
same,Miosis,[2]; content 0.01%,15.4 ± 1.60%
same,Inhibition (miosis),[2]; content 0.1%,24.9 ± 16.4%
same,Miosis,[2]; content 0.1%,17.4 ± 3.80%
same,Decomposition of Compound [I],[3],the decomposition of Compound [I] was not observed either
same,Prostaglandin in anterior chamber aqueous humor,[4]; 0.1%,< 0.4 ng/mL
same,White Blood Cell count in anterior chamber aqueous humor,[4]; 0.1%,1489 ± 499 Cells/mm^3
same,Prostaglandin in anterior chamber aqueous humor,[4]; 0.5%,< 0.4 ng/mL
same,White Blood Cell count in anterior chamber aqueous humor,[4]; 0.5%,1673 ± 277 Cells/mm^3
same,"Anterior chamber opacity, degree of inhibition relative to physiological saline group",[5]; 0.1%,-47.4%
same,"Balbar conjunctival injection, degree of inhibition relative to physiological saline group",[5]; 0.1%,27.0%
same,"Corneal opacity, degree of inhibition relative to physiological saline group",[5]; 0.1%,57.1%
same,"Discharge, degree of inhibition relative to physiological saline group",[5]; 0.1%,100%
same,"External + Internal Grand Total Score, degree of inhibition relative to physiological saline group",[5]; 0.1%,35.7%
same,"External Segment Total Score, degree of inhibition relative to physiological saline group",[5]; 0.1%,32.7%
same,"Internal Segment Total Score, degree of inhibition relative to physiological saline group",[5]; 0.1%,40.7%
same,"Iridic injection, degree of inhibition relative to physiological saline group",[5]; 0.1%,61.6%
same,"Morphological change of iris, degree of inhibition relative to physiological saline group",[5]; 0.1%,44.2%
same,"Palpebral conjunctival edema, degree of inhibition relative to physiological saline group",[5]; 0.1%,45.0%
same,"Palpebral conjunctival injection, degree of inhibition relative to physiological saline group",[5]; 0.1%,29.8%
same,Anterior chamber opacity score (Internal Segment),[5]; 0.1%,2.8 ± 0.8
same,Balbar conjunctival injection score (External Segment),[5]; 0.1%,8.1 ± 0.4
same,Corneal opacity score (External Segment),[5]; 0.1%,0.6 ± 0.2
same,Discharge score (External Segment),[5]; 0.1%,0
same,External + Internal Grand Total Score,[5]; 0.1%,21.8 ± 2.1
same,External Segment Total Score,[5]; 0.1%,13.1 ± 1.1
same,Internal Segment Total Score,[5]; 0.1%,8.0 ± 1.2
same,Iridic injection score (Internal Segment),[5]; 0.1%,2.8 ± 0.1
same,Morphological change of iris score (Internal Segment),[5]; 0.1%,2.4 ± 0.4
same,Palpebral conjunctival edema score (External Segment),[5]; 0.1%,1.1 ± 0.4
same,Palpebral conjunctival injection score (External Segment),[5]; 0.1%,4.0 ± 0.3
same,"Anterior chamber opacity, degree of inhibition relative to physiological saline group",[5]; 0.5%,-47.4%
same,"Balbar conjunctival injection, degree of inhibition relative to physiological saline group",[5]; 0.5%,27.0%
same,"Corneal opacity, degree of inhibition relative to physiological saline group",[5]; 0.5%,57.1%
same,"Discharge, degree of inhibition relative to physiological saline group",[5]; 0.5%,100%
same,"External + Internal Grand Total Score, degree of inhibition relative to physiological saline group",[5]; 0.5%,34.2%
same,"External Segment Total Score, degree of inhibition relative to physiological saline group",[5]; 0.5%,31.4%
same,"Internal Segment Total Score, degree of inhibition relative to physiological saline group",[5]; 0.5%,33.3%
same,"Iridic injection, degree of inhibition relative to physiological saline group",[5]; 0.5%,54.8%
same,"Morphological change of iris, degree of inhibition relative to physiological saline group",[5]; 0.5%,32.6%
same,"Palpebral conjunctival edema, degree of inhibition relative to physiological saline group",[5]; 0.5%,55.0%
same,"Palpebral conjunctival injection, degree of inhibition relative to physiological saline group",[5]; 0.5%,60.5%
same,Anterior chamber opacity score (Internal Segment),[5]; 0.5%,2.8 ± 0.5
same,Balbar conjunctival injection score (External Segment),[5]; 0.5%,8.1 ± 0.3
same,Corneal opacity score (External Segment),[5]; 0.5%,0.6 ± 0.2
same,Discharge score (External Segment),[5]; 0.5%,0
same,External + Internal Grand Total Score,[5]; 0.5%,22.3 ± 1.1
same,External Segment Total Score,[5]; 0.5%,13.3 ± 0.6
same,Internal Segment Total Score,[5]; 0.5%,9.0 ± 0.7
same,Iridic injection score (Internal Segment),[5]; 0.5%,3.3 ± 0.3
same,Morphological change of iris score (Internal Segment),[5]; 0.5%,2.9 ± 0.3
same,Palpebral conjunctival edema score (External Segment),[5]; 0.5%,0.9 ± 0.2
same,Palpebral conjunctival injection score (External Segment),[5]; 0.5%,3.7 ± 0.1
same,Inhibitory effect on inflammatory symptoms induced by intravenous antigen,"[5]; both concentrations (0.1% and 0.5%), gross observation",substantially complete inhibition at both concentrations
same,Effect on protein increase compared with 0.5% indomethacin,[6]; 0.01% of Compound [I],equivalent to that of 0.5% indomethacin
same,Inhibition (protein increase),[6]; content 0.0001%,6.3%
same,Inhibition (protein increase),[6]; content 0.001%,26.3%
same,Inhibition (protein increase),[6]; content 0.01%,62.9%
same,Inhibition (protein increase),[6]; content 0.1%,87.8%
same,Anti-inflammatory effect compared with indomethacin,[6]; miosis and protein increase after paracentesis,stronger anti-inflammatory effect than indomethacin
same,Inhibitory activity on protein increase after paracentesis,"[6]; rabbit, in vivo",strong and dose-related inhibitory activity on protein increase after paracenthesis
same,Osmolarity of ophthalmic solution,[7]; 0.1% ophthalmic solution,325 mOsm/kg·H2 O
same,pH value of ophthalmic solutions,[7]; 0.5% and 0.1% ophthalmic solutions,8.11
same,Osmolarity of ophthalmic solution,[7]; 0.5% ophthalmic solution,310 mOsm/kg·H2 O
same,Osmotic pressure,"[7]; Experimental Example 3 solutions 0.1-0.0001%, pH 8.0",310 mOsm/Kg.H2 O
